Legend:
[1] = molecular target: Dual specificity tyrosine-phosphorylation-regulated kinase 1A (Homo sapiens, UniProt Q13627); assay: Inhibition of recombinant DYRK1A (unknown origin) using Ser/Thr 18 peptide as substrate incubated for 1 hr in presence of ATP by FRET assay
[2] = Effect on Wnt signaling pathway in human SW480 cells harbouring TCF/LEF luciferase reporter gene and SP5-Luc reporter gene incubated for 36 to 48 hrs by luminescence assay; assay type: cell-based
[3] = Inhibition of IL1-beta induced MMP3 expression levels in human chondrocytes assessed as MMP3 levels incubated for 2hrs followed by IL1-beta stimulation and measured after overnight incubation by LANCE assay relative to control; assay type: functional, Chondrocyte
[4] = Inhibition of IL1-beta induced MMP3 expression levels in human chondrocytes assessed as MMP3 levels incubated for 2hrs followed by IL1-beta stimulation and measured after overnight incubation by LANCE assay; assay type: functional, cell-based; settings: Chondrocyte
[5] = molecular target: Dual specificity protein kinase CLK3 (Homo sapiens, UniProt P49761); assay: Inhibition of recombinant CLK3 (unknown origin) using Ser/Thr 18 peptide as substrate incubated for 1 hr in presence of ATP by FRET assay
Chain of Dual specificity protein kinase CLK3 (P49761 whole entry): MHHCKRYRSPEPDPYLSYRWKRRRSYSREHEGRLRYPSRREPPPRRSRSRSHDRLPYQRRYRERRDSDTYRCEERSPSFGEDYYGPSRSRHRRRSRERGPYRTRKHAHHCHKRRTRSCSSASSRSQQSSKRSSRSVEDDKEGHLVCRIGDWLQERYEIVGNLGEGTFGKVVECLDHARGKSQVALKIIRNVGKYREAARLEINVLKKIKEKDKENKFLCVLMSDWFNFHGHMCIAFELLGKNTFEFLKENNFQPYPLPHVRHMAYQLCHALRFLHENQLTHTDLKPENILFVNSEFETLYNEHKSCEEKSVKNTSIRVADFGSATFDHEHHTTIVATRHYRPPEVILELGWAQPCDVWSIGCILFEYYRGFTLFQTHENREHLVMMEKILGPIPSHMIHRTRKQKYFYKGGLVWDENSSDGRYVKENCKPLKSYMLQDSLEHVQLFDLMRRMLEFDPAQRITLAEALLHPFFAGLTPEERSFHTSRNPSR

[6] = molecular target: Dual specificity protein kinase CLK2 (Homo sapiens, UniProt P49760); assay: Inhibition of recombinant CLK2 (unknown origin) using Ser/Thr 6 peptide as substrate incubated for 1 hr in presence of ATP by FRET assay
Chain of Dual specificity protein kinase CLK2 (P49760 whole entry): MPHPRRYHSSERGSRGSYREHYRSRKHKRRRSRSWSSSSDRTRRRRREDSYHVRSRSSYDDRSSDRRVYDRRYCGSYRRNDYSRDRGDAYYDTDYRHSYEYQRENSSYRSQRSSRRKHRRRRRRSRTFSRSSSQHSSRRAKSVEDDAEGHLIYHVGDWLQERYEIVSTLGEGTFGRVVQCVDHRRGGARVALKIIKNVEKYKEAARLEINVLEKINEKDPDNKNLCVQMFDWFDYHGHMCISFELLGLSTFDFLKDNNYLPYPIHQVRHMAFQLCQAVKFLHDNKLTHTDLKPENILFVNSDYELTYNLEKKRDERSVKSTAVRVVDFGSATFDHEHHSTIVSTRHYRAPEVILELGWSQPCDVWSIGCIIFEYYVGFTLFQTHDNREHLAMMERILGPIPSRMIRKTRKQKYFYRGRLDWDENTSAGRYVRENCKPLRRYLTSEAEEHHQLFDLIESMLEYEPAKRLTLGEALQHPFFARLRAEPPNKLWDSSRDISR

[7] = Induction of chondrogenesis in human MSC assessed as maximum activity at 30 nM incubated for 6 days by rhodamine B and Nile red staining based imaging analysis relative to control; assay type: functional; settings: BMMSC, 144 h, time 6 day
[8] = Induction of chondrogenesis in human MSC assessed as incubated for 6 days by rhodamine B and Nile red staining based imaging analysis; assay type: functional; settings: bmmsc
[9] = Induction of chondrogenesis in human MSC assessed as maximum activity at 300 nM incubated for 6 days by rhodamine B and Nile red staining based imaging analysis relative to control; assay type: functional; settings: BMMSC, 144 h, time 6 day
[10] = Induction of chondrogenesis in human MSC assessed as maximum activity at 100 nM incubated for 6 days by rhodamine B and Nile red staining based imaging analysis relative to control; assay type: functional; settings: BMMSC, 144 h, time 6 day

SMILES | EC50 [1] [nM] | EC50 [2] [nM] | EC50 [4] [nM] | EC50 [5] [nM] | EC50 [6] [nM] | EC50 [8] [nM] | Imax [3] [%] | Emax at 0.03 µM [7] [%] | Emax at 0.3 µM [9] [%] | Emax at 0.1 µM [10] [%]
Cn1ncc(-c2ccc3cnc(NC(=O)C4CCN(C(=O)c5ccccc5)CC4)cc3c2)c1CN1CCCCC1 | 3 | 706 | 35 |  |  |  | 51 |  |  | 
Cn1cc(-c2ccc3cnc(NC(=O)c4ccnc(N5CC6CC5CN6)c4)cc3c2)cn1 (configuration not stated) |  |  | 3000 |  |  |  | 69 |  |  | 
COc1cncc(C(=O)Nc2c[nH]nc2C(=O)Nc2ccc3c(c2)CCNC3)c1 | 8 | 613 | 342 |  |  |  | 76 |  |  | 
O=C(Nc1cc2cc(-c3cncc(CN4CCC(O)CC4)c3)ccc2cn1)c1ccc(F)cc1 |  | 382 | 2.9 |  |  |  | 3.7 |  |  | 
O=C(Nc1cc2cc(-c3cnco3)cnc2cn1)C1CCNCC1 | 40 | > 10000 | 35.8 | > 10000 | > 10000 |  |  |  |  | 
O=C(Nc1c[nH]nc1C(=O)Nc1cccnc1)c1cccnc1 | 12 | 20.5 | 38.9 |  |  |  | 100 |  |  | 
CO[C@H]1CC[C@H](C(=O)Nc2cc3cc(-c4cnn(C)c4CN4CCCCC4)ccc3cn2)CC1 | 2 | 471 | 3000 |  |  |  | 0.2 |  |  | 
Cc1n[nH]c2ccc(-c3cncc(NCC4(F)CNC4)n3)cc12 | 11 | 780 | 2270 |  |  |  | 100 |  |  | 
CN1CCN(c2cc(C(=O)Nc3cc4cc(-c5cncs5)ccc4cn3)ccn2)CC1 |  |  | 423 |  |  |  | 100 | 22.3 |  | 
O=C(Nc1cccnc1)c1n[nH]c2ccc(-c3cncc(CN4CCS(=O)(=O)CC4)c3)cc12 | 2 | 210 | 616 |  |  |  | 8.6 |  |  | 
O=C(Nc1cncc(-c2ccc3[nH]nc(-c4nc5c(-c6ccccn6)ccnc5[nH]4)c3n2)c1)c1ccccc1 | > 10000 | > 10000 | 5.1 | > 10000 |  |  | 67 |  |  | 
CN1CCC(Oc2ccc3[nH]c(-c4n[nH]c5ccc(-c6cnn(C)c6)cc45)nc3c2)CC1 | 2 | 18.3 | 170 |  |  |  | 100 |  |  | 
Cn1cc(-c2ccc3cnc(NC(=O)c4ccnc(OC5CNC5)c4)cc3c2)cn1 |  |  | 154 |  |  |  | 100 |  |  | 
CN1CCC(n2cc(NC(=O)c3n[nH]c4ccc(-c5cnn(C)c5)cc34)cn2)CC1 | 1 | 79 | 818 |  |  |  | 100 |  |  | 
CC(C)(C)C(=O)Nc1cncc(-c2ccc3[nH]nc(-c4nc5c(-c6cccnc6)cncc5[nH]4)c3c2)c1 | 5 | 85.4 | 1100 |  |  |  | 100 |  |  | 
CN(C)C1CN(c2ncc(C(=O)Nc3cc4cc(-c5cnn(C)c5)ccc4cn3)s2)C1 |  | 1320 | 71.4 |  |  |  | 0 |  |  | 
O=C(Nc1c[nH]nc1-c1nc2c(-c3cccc(F)c3)cccc2[nH]1)c1cccnc1 | 4 | 2.9 | 76.5 |  |  |  | 100 |  |  | 
CN1CCC(Nc2ccc(NC(=O)c3n[nH]c4cc(F)c(-c5cnn(C)c5)cc34)cn2)CC1 | 2 | 230 | 1160 |  |  |  | 100 |  |  | 
CC(C)N1CCC(n2cc(C(=O)Nc3cc4cc(-c5cn(C)nn5)ccc4cn3)cn2)CC1 |  | 32.7 | 492 |  |  |  | 91 |  |  | 
CC(C)CC(=O)Nc1cncc(-c2ccc3[nH]nc(-c4nc5c(-c6cccnc6)cncc5[nH]4)c3c2)c1 | 12 | 12 | 111 |  |  | 100 | 100 |  |  | 198
O=C(Nc1cncc(-c2ccc3[nH]nc(-c4nc5c(-c6cccc(F)c6)cccc5[nH]4)c3n2)c1)C1CC1 | > 10000 | 1080 | 0.2 | > 10000 |  |  | 70 |  |  | 
CCCC(=O)Nc1cncc(-c2ccc3[nH]nc(-c4nc5c(N6CCCCC6)cncc5[nH]4)c3c2)c1 | 14 | 42 | 20.5 |  |  |  | 39 | 77.3 |  | 
Cc1ccncc1-c1ccc2[nH]nc(-c3cc4c(-c5ccncc5)ccnc4[nH]3)c2n1 | 66 | > 10000 |  | > 10000 |  | 300 |  |  | 56.5 | 
CN1CCC(C(=O)Nc2cc3cc(-c4cnsc4)cnc3cn2)CC1 |  | > 10000 | 3000 | > 10000 | > 10000 |  |  |  |  | 
O=C(Nc1ccc(CN2CCCC2)cc1)c1n[nH]c2ccc(-c3cnn(C4CC4)c3)cc12 | 4 | 451 | 3000 |  |  |  | 57 |  |  | 
O=C(Nc1c[nH]nc1C(=O)Nc1ccc(N2CCCC2)nc1)c1cncc(OC2CCNCC2)c1 | 9 | 2.5 | 3000 |  |  |  | 80 |  |  | 

Now from value to compound, other results behind:

EC50 [1] [nM] | EC50 [2] [nM] | EC50 [4] [nM] | EC50 [5] [nM] | EC50 [6] [nM] | EC50 [8] [nM] | SMILES | Imax [3] [%] | Emax at 0.03 µM [7] [%] | Emax at 0.3 µM [9] [%] | Emax at 0.1 µM [10] [%]
19 | 1210 | 3000 | > 10000 |  |  | COc1cncc(C#Cc2c[nH]nc2C(=O)Nc2ccc(OCCN3CCCC3)nc2)c1 | 2.4 |  |  | 
1 | 13 | 2220 |  |  |  | NC(=O)c1ccc(NC(=O)c2n[nH]c3ccc(-c4cncc(CN5CCCCC5)c4)cc23)cn1 | 100 |  |  | 
> 10000 | 3380 | 6.7 | > 10000 |  |  | O=C(Nc1cncc(-c2ccc3[nH]nc(-c4nc5c(-c6cccs6)cccc5[nH]4)c3n2)c1)C1CC1 | 72 |  |  | 
 |  | 304 |  | 3 |  | CN1CCN(c2ccc(C(=O)N3CCN(c4cc(C(=O)Nc5cc6cc(-c7cnn(C)c7)ccc6cn5)ccn4)CC3)cn2)CC1 |  |  |  | 
2 | 23 | 13.6 |  |  |  | c1cncc(-c2ccc3[nH]nc(-c4nc5c(N6CCOCC6)cncc5[nH]4)c3c2)c1 | 100 | 90.4 |  | 
5 | 165 | 319 |  |  |  | c1cnc2cc(-c3n[nH]c4ccc(-c5cncc(CN6CCCCC6)c5)cc34)[nH]c2c1 | 100 |  |  | 
43 | 3000 |  | > 10000 |  | 900 | CN(C)CCOc1cncc(-c2cc3c(-c4cc5c(-c6ccc(F)cc6)nccc5[nH]4)n[nH]c3cn2)c1 |  |  | 113 | 
9 | 3570 | 3000 | > 10000 |  |  | COc1cncc(C#Cc2c[nH]nc2C(=O)Nc2ccc(OC3CCN(C)CC3)nc2)c1 | 3.4 |  |  | 
8 | 470 | 3000 |  |  |  | Fc1ccc(-c2cncc3[nH]c(-c4n[nH]c5cnc(-c6cncc(CN7CCCC7)c6)cc45)nc23)s1 | 81 |  |  | 
 |  | 3000 |  |  |  | Cn1ncc(-c2ccc3cnc(NC(=O)c4ccnc(N5CCOCC5)c4)cc3c2)c1CN1CCOCC1 | 70 |  |  | 
1 | 30 | 3000 |  |  |  | O=C(Nc1ccc(C(=O)N2CCCC2)nc1)c1n[nH]c2ccc(-c3cncc(CN4CCCCC4)c3)cc12 | 100 |  |  | 
10 | 662 | 3000 |  |  |  | O=C(Nc1c[nH]nc1C(=O)Nc1ccc(N2CCCCC2)nc1)c1cncc(OC2CCNCC2)c1 | 71 |  |  | 
8 | > 10000 |  | > 10000 |  | 300 | Cn1cc(-c2cnc3[nH]nc(-c4cc5cccnc5[nH]4)c3c2)cn1 |  |  | 51.7 | 

Source: ChEMBL document CHEMBL4739717, “Methods of treating cartilage disorders through inhibition of clk and dyrk” (2020)
